These results are taken from patent US12252486B2, “Solid state forms” (Amgen Inc., priority 2019, dated 2025).

Series [1] can be described thus: solubility assessment during lead optimization. Format: physicochemical. From the text:
Within the pharmaceutical research and development field, the investigation of a suitable solid-state form represents a crucial step. Investigating a solid-state form comprises several decisions, mainly the investigation of an anhydrous, salt or co-crystal form and the investigation of a polymorph of the respective anhydrous, salt or co-crystal. During a lead optimization program, several properties of research compounds are optimized, typically leading to one or a few candidates that continue into exploratory development programs. Typically, in the assessment and optimization of physical chemical parameters during lead optimization, the main focus is on solubility. […] Beyond the optimization of solubility, further physical chemical parameters, such as (1) melting point, (2) thermal behavior, (3) hygroscopicity, (4) crystal habit, (5) polymorphic behavior or physical stability, (6) impurity profile, and (7) chemical stability of the anhydrous or salt form, must be borne in mind when investigating the salt. The melting point of a drug, either as a free base, acid or salt form, should be higher than a certain threshold to allow processing steps such as drying or tableting. The assessment of thermal behavior, which is typically done by thermogravimetry (TGA) and differential scanning calorimetry (DSC), also includes solid-solid phase transitions. […]

For series [2], the system named is KRAS^G12C tumors. The following applies: preclinical analyses, combination; cited from earlier work.
Series [3] concerns KRAS^G12C tumors. The following applies: immune-competent mice; alone as well as in combination with immune-checkpoint inhibitors; cited from earlier work.
The conditions of series [4]: clinical trials, first dosing cohorts; cited from earlier work.

As for `C=CC(=O)N1CCN(c2nc(=O)n(-c3c(C)ccnc3C(C)C)c3nc(-c4c(O)cccc4F)c(F)cc23)[C@@H](C)C1` [Compound 1, 6-fluoro-7-(2-fluoro-6-hydroxyphenyl)-1-(4-methyl-2-(2-propanyl)-3-pyridinyl)-4-((2S)-2-methyl-4-(2-propenoyl)-1-piperazinyl)pyrido[2,3-d]pyrimidin-2(1H)-one], the solubility entry in series [1] is recorded as “good solubility features”.

Take `C=CC(=O)N1CCN(c2nc(=O)n(-c3c(C)ccnc3C(C)C)c3nc(-c4c(O)cccc4F)c(F)cc23)[C@@H](C)C1` [AMG 510]: in the series with KRAS^G12C tumors [2], the “effect on anti-tumor efficacy of chemotherapy and targeted agents” value is “improved the anti-tumor efficacy of chemotherapy and targeted agents”. The cures result with KRAS^G12C tumors [3] is given as “durable cures”. For the same molecule, the anti-tumor activity entry in series [4] was “demonstrated anti-tumor activity”.
